According to a melting point compilation (Tetko et al.; mined from patent text by program, amines drawn as free bases though some values may be those of a salt):

Row | Structure (SMILES) | melting point [°C]
1 | CC(C#Cc1cccc(C=Cc2ccccn2)c1)N(O)C(N)=O (stereo unspecified) | 122 to 126
2 | CCS(=O)(=O)Oc1cc2c(C)c(CCN3CCN(c4ccccc4OC)CC3)c(=O)oc2cc1OC | 148 to 150
3 | CC(C)(C)C1CCC(=O)C(CC(=O)c2ccccc2)C1 (stereo unspecified) | 127 to 129
4 | CCC(=O)N(CCCc1ccccc1)C1CCc2c(cccc2NC(C)=O)C1 (stereo unspecified) | 148 to 150
5 | Cn1cc(-c2ccc3nc(NC(=O)c4ccc(C(C)(C)C)nc4)cn3c2)cn1 | 228 to 230
6 | CCCCC(=O)C(=Cc1ccc(Cl)cc1)n1cncn1 | 117 to 120
7 | NC(=O)C(c1ccccc1)(c1ccccc1)[C@@H]1CCNC1 | 128 to 132
8 | C=CCN(CC=C)C(=O)C1=C(C(=O)Nc2cc(OC3CCCC3)c(Cl)cc2F)CCCC1 | 74 to 76
9 | Fc1nc(F)c(F)c(N2CCCNCC2)c1F | 58 to 61
10 | Cc1cccc(COc2cccnc2N)c1F | 115 to 118
11 | CN1CCC(Oc2ccccc2C(N)=O)C1 (stereo unspecified) | 116 to 118
12 | NNC(=O)c1cnn(-c2ccc(NN)nn2)c1N | 302 to 305
13 | CO/C=C1/C(=O)NC(=O)c2cc(Br)ccc21 | 242 to 243
14 | Cc1cc2c(cc1C=O)C(C)(C)CCC2(C)C | 82.4 to 84.1
15 | O=Cc1c[nH]c2ccc3c(c12)CC(O)CO3 (stereo unspecified) | 158 to 162
16 | Nc1sc2c(c1Cc1cccs1)CCN(Cc1ccccc1)C2 | 122 to 123
17 | COc1ccc(COc2ccc(C(=O)O)cc2OCc2ccc(OC)cc2)cc1 | 171 to 172
18 | CCc1n[nH]c(C(N)=O)c1NC(=O)c1cc(S(C)(=O)=O)ccc1OCc1ccccn1 | 134 to 138
19 | CCCC(=O)NC(C#N)C(=O)OCC (stereo unspecified) | 110
20 | CCOC(=O)c1ccc(NC2(C(N)=O)CCCCC2)cc1 | 155 to 157
21 | CC(=S)NC[C@H]1CN(c2ccc3c(c2)C[C@@H](C)N3C(=O)CO)C(=O)O1 | 115 to 117

Row | Structure (SMILES) | melting point [°C]
22 | c1ccc(N2CCN(CCc3nc4ccccc4[nH]3)CC2)cc1 | 201 to 203
23 | CCN(CC)C(=O)n1cnc(S(=O)(=O)Cc2ccccc2)n1 | 87 to 88
24 | CCCCCCCCOC(=O)N(C[C@H](O)[C@@H](O)[C@H](O)[C@H](O)CO)C(C)CC (stereo partly specified) | 101
25 | O=C(O)C1CC=C(c2c(-c3ccccc3)[nH]c3ccccc23)CC1 (stereo unspecified) | 178 to 179
26 | CC(=O)Nc1nc(CCc2ccc(CCCN)s2)cs1 | 106 to 108
27 | Cc1cc(S(=O)(=O)Nc2cccc(Br)c2)c2c(C)ccc(C(C)C)cc1-2 | 172 to 174
28 | Cc1nn(-c2c(Cl)cc(C(F)(F)F)cc2Cl)nc1C#N | 53
29 | CN(C)CCC(O)c1ccccc1 (stereo unspecified) | 45 to 46
30 | Cc1cc(C)c2nc(NC3CCN(CCCS(N)(=O)=O)CC3)n(Cc3nc(C)ccc3O)c2c1 | 180
31 | COc1ccc(F)cc1C(=O)NC1COc2cc(OC)c(S(N)(=O)=O)cc2C1 (stereo unspecified) | 209 to 210
32 | CC(C)(C)OC(=O)Nc1ccc(-c2ccc(F)cc2)cc1NC(=O)CC(=O)c1sccc1Cl | 168 to 169
33 | CCCc1c(OCCCCCOc2ccc3oc(C(=O)O)cc3c2)ccc2c1OCCC2=O | 192 to 195
34 | CCOC(=O)c1sc(Oc2ccc(Cl)cc2Cl)nc1-c1cccc(C(F)(F)F)c1 | 72 to 73
35 | COC(=O)CCCS(=O)(=O)c1ccc(C)cc1 | 23
36 | O=c1[nH]cnc2c1CCN(Cc1ccccc1)C2 | 199
37 | NC(=O)c1c(F)ccc(OCc2nc3cc(Br)ccc3s2)c1F | 244 to 246
38 | COC(=O)c1ccnc(Nc2ccc(SC)cc2)c1 | 142
39 | COc1cc(OC)c(CN2CCc3cc(OCc4ccccc4)c(OC)cc3C2)c(OC)c1 | 129 to 131
40 | O=C(O)Cn1c(=O)c(=O)[nH]c2cc([N+](=O)[O-])c(-n3ccc(CN4CCC(c5ccccc5)CC4)c3)cc21 | > 210
41 | O=C(O)CCCCN1CCN(C2=Nc3ccccc3Sc3ccc(Cl)cc32)CC1 | 220 to 221
